Tests used:
Test in all cases: Minimal Inhibitory Concentration, in vitro
Type in all cases: cell-based
Design in all cases: unit not given here
[1] = tested on: Klebsiella Pneumoniae MGH-2
Excerpt: (§1) The compounds of the invention are new chemical compounds that are useful as pharmacological agents and especially as broad spectrum antibacterial agents. They are active in vitro against strains of both gram-positive and gram-negative bacteria.
(§2) Minimal Inhibitory Concentration

[2] = tested on: Staph Aureus UC-76
Excerpt: as §1, §2

[3] = tested on: Serratia Marcescens IMM-16
Excerpt: as §1, §2

[4] = tested on: Proteus Vulgaris 1810
Excerpt: as §1, §2

[5] = tested on: Pseudomonas Aeruginosa #28
Excerpt: as §1, §2

[6] = tested on: Pseudomonas Aeruginosa UI-18
Excerpt: as §1, §2

[7] = tested on: Enterobacter Cloacae IMM-11
Excerpt: as §1, §2

CC1(C)S[C@@H]2[C@H](NC(=O)[C@H](NC(=O)c3cnc(-c4ccc(NC(=O)CN5CCCC5=O)cc4)nc3O)c3ccc(O)cc3)C(=O)N2[C@H]1C(=O)O [(2-Oxo-1-pyrrolidinyl)acetyl, N-[2-[4-[(2-Oxo-1-pyrrolidinyl)acetylamino]phenyl]-4-hydroxy-5-pyrimidinylcarbonyl]amoxicillin]
Minimal Inhibitory Concentration [1]: 25
Minimal Inhibitory Concentration [2]: 1.6
Minimal Inhibitory Concentration [3]: 25
Minimal Inhibitory Concentration [4]: 1.6
Minimal Inhibitory Concentration [5]: 1.6
Minimal Inhibitory Concentration [6]: 3.1
Minimal Inhibitory Concentration [7]: 12.5

From patent US4267180A, “Novel antibacterial amide compounds and process means for producing the same” (Warner-Lambert Company, priority 1980, dated 1981)
